Results published in patent publication US20260234178A1, “PYRANOSIDE COMPOUNDS AND METHODS” (JAMES COOK UNIVERSITY, priority 2022, published 2026).

Legend:
Format in all cases: cell-based
IL-17A [1] = experiment: Cytokine suppression assay, anti-CD3/anti-CD28 (Dynabead)-stimulated PBMC: IL-17A release; conditions: 10 μg/mL; anti-CD3/anti-CD28-stimulated human PBMC; 20 h
From the text: (§1) PBMCs from four healthy donors were isolated from buffy coats using Lymphoprep™ density gradient medium ([sequence] Technologies, Vancouver, Canada), according to the manufacturer's instructions. Isolated cells were cryopreserved in 90% heat-inactivated foetal calf serum (FCS) (Bovogen Biologicals) with 10% dimethyl sulfoxide (DMSO; Sigma-Aldrich, St. Louis, MO, USA) using vapour phase nitrogen until required. On the day of the experiment, PBMCs were thawed and removed from the freezing medium by washing with 9 mL pre-warmed culture medium and centrifugation at 300×g for 5 min. An R10 culture medium of RPMI-1640 media without L-glutamine (Gibco Thermo Fisher Scientific, Waltham, MA, USA), supplemented with 10% heat-inactivated foetal bovine serum (FBS; Bovogen Biologicals, Christchurch, New Zealand), 10,000 units/mL of penicillin+10,000 μg/mL of streptomycin (Thermo Fisher Scientific), and 1× GlutaMAX (Thermo Fisher Scientific) was used for all experiments. […] After incubation, the enzyme was removed by two additional washes with R10. Thawed PBMCs were counted using a CASY cell counter (Roche Innovatis, Germany), and cell densities were adjusted to seed 100,000 cells/well into 96-well plates in a final volume of 100 μL culture medium.
(§2) For our cytokine suppression assays, inflammatory cytokines (IFN-γ, IL-17A, IL-8, and TNF) were induced in two ways. First, the PBMCs from three donors were activated with a cell stimulation cocktail of 50 ng/mL phorbol 12-myristate 13-acetate and 1 μg/mL ionomycin (P/I; eBioscience). P/1-stimulated cells were treated with 10 μg/mL of U. metrosideros compounds, PCE, CsA (Sigma-Aldrich), or remained untreated. Second, the PBMCs from four donors were cultured in the presence of Dynabeads Human T-Activator CD3/CD28 (Gibco) at a cell-to-bead ratio of 1:1. […] On the day of the experiment, cytokine concentrations were determined using a standard LEGENDplex™ human inflammation panel 1 (BioLegend®), LSRFortessa (BD), and LEGENDplex™ software (version 2022-02-10, Qognit, Inc.).

IFN-γ [2] = experiment: Cytokine suppression assay, P/I-stimulated PBMC: IFN-γ release; conditions: 10 μg/mL; P/I-stimulated human PBMC; 20 h treatment; relative to stimulated control
From the text: as §1, §2

IL-17A [3] = experiment: Cytokine suppression assay, P/I-stimulated PBMC: IL-17A release; conditions: 10 μg/mL; P/I-stimulated human PBMC; 20 h treatment; relative to stimulated control
From the text: (§3) PBMCs from four healthy donors were isolated from buffy coats using Lymphoprep™ density gradient medium ([sequence] Technologies, Vancouver, Canada), according to the manufacturer's instructions. Isolated cells were cryopreserved in 90% heat-inactivated foetal calf serum (FCS) (Bovogen Biologicals) with 10% dimethyl sulfoxide (DMSO; Sigma-Aldrich, St. Louis, MO, USA) using vapour phase nitrogen until required. On the day of the experiment, PBMCs were thawed and removed from the freezing medium by washing with 9 mL pre-warmed culture medium and centrifugation at 300×g for 5 min. […] Thawed PBMCs were counted using a CASY cell counter (Roche Innovatis, Germany), and cell densities were adjusted to seed 100,000 cells/well into 96-well plates in a final volume of 100 μL culture medium.
(§4) For our cytokine suppression assays, inflammatory cytokines (IFN-γ, IL-17A, IL-8, and TNF) were induced in two ways. […] On the day of the experiment, cytokine concentrations were determined using a standard LEGENDplex™ human inflammation panel 1 (BioLegend®), LSRFortessa (BD), and LEGENDplex™ software (version 2022-02-10, Qognit, Inc.).

IL-8 = experiment: Cytokine suppression assay, anti-CD3/anti-CD28 (Dynabead)-stimulated PBMC: IL-8 release; conditions: 10 μg/mL; anti-CD3/anti-CD28-stimulated human PBMC; 20 h
From the text: as §3, §4

IFN-γ [4] = experiment: Cytokine suppression assay, anti-CD3/anti-CD28 (Dynabead)-stimulated PBMC: IFN-γ release; conditions: 10 μg/mL; anti-CD3/anti-CD28-stimulated human PBMC; 20 h
From the text: as §3, §4

## CC1=CC(=O)CC(C)(C)[C@@]1(O)/C=C/[C@@H](C)O[C@@H]1O[C@H](CO)[C@@H](O)[C@H](O)[C@H]1O [Compound 3, (6S,9R)-roseoside]
IL-17A [1]
  suppression of Dynabead-induced IL-17A secretion: 38.2%
IFN-γ [2]
  suppression of IFN-γ secretion: 64.4%

## CC1=CC[C@@H](C(C)(C)O[C@@H]2O[C@H](COC(=O)c3cc(O)c(O)c(O)c3)[C@@H](O)[C@H](O)[C@H]2O)CC1 [Compound 5, (4S)-α-terpineol 8-O-β-D-(6-O-galloyl)glucopyranoside]
IL-17A [3]
  reduction of IL-17A levels: 60.9%
IL-8
  inhibition of IL-8 release: 24.3%
IL-17A [1]
  suppression of Dynabead-induced IL-17A secretion: 53.7%
IFN-γ [4]
  suppression of Dynabead-induced IFN-γ secretion: 59.3%
IFN-γ [2]
  suppression of IFN-γ secretion: 79.6%

## galloyl-lawsoniaside A [Compound 4]
IL-17A [3]
  reduction of IL-17A levels: 79.1%
IL-8
  inhibition of IL-8 release: 40.5%
IL-17A [1]
  suppression of Dynabead-induced IL-17A secretion: 80.9%
IFN-γ [4]
  suppression of Dynabead-induced IFN-γ secretion: 78.5%
IFN-γ [2]
  suppression of IFN-γ secretion: 95.3%
